The test system of one series is Cyperus serotinus. As to the kind of experiment: Herbicidal activity against Cyperus serotinus assessed as phytotoxic activity ratings (0- no effect to 5-complete killing rating scale) at 3.1 to 100 g/a measured after 3 weeks post compound treatment under green house conditions. The format is functional.
Series [1] has as its system Schoenoplectiella juncoides. As to the kind of experiment: Herbicidal activity against Schoenoplectiella juncoides var. Hotarui Ohwi assessed as phytotoxic activity ratings (0- no effect to 5-complete killing rating scale) at 100 g/a measured after 3 weeks post compound treatment under green house conditions. The format is functional.
A further series relates to Cyperus difformis. As to the kind of experiment: Herbicidal activity against Cyperus difformis assessed as phytotoxic activity ratings (0- no effect to 5-complete killing rating scale) at 100 g/a measured after 3 weeks post compound treatment under green house conditions. The format is functional.
The test system of another series is Echinochloa oryzicola. As to the kind of experiment: Herbicidal activity against Echinochloa oryzicola assessed as phytotoxic activity ratings (0- no effect to 5-complete killing rating scale) at 100 g/a measured after 3 weeks post compound treatment under green house conditions. The format is functional.
The test system of series [2] is Oryza sativa. As to the kind of experiment: Phytotoxicity against directly seeded Oryza sativa (rice) seedlings assessed as phytotoxic activity ratings (0- no effect to 5-complete killing rating scale) at 100 g/a measured after 3 weeks post compound treatment under green house conditions. Conditions: in vivo, 504 h. The format is organism-based.
Series [3] concerns Oryza sativa. As to the kind of experiment: Phytotoxicity against transplanted Oryza sativa (rice) seedlings assessed as phytotoxic activity ratings (0- no effect to 5-complete killing rating scale) at 100 g/a measured after 3 weeks post compound treatment under green house conditions. The format is organism-based. The note with it: in vivo, 504 h.

Active and inactive are the calls of the source. No rule for the calls is given here.

Turning to `C[C@H](NC(=O)Nc1cccc(C(F)(F)F)c1F)c1ccccc1`, in the series with Cyperus serotinus, the outcome was inactive. The Activity (in series [1]; with Cyperus difformis; with Echinochloa oryzicola; in the series with Oryza sativa [2]; with Oryza sativa [3]) was 0% each time.
Consider `C[C@H](NC(=O)Nc1ccccc1Cl)c1ccccc1`, for which, in the series with Cyperus serotinus, the result was inactive. In addition, the Activity in series [1] stood at 0%; in the series with Cyperus difformis, 10%; in the series on Echinochloa oryzicola it was 0%; in the series on Oryza sativa [2], 0%; in the series with Oryza sativa [3] it was 0%.
Regarding `C[C@H](NC(=O)Nc1ccccc1I)c1ccccc1`, the outcome with Cyperus serotinus was inactive. Moreover, the Activity in series [1] is 0%; in the series with Cyperus difformis, 10%; with Echinochloa oryzicola, 0%; in the series on Oryza sativa [2] it was 0%; with Oryza sativa [3] it was 0%.
Consider `C[C@H](NC(=O)Nc1cccc(F)c1)c1ccccc1`, for which, in the series on Cyperus serotinus, the outcome was inactive. For the same compound, the Activity in series [1] is 0%; in the series on Cyperus difformis, 10%; in the series on Echinochloa oryzicola, 10%; with Oryza sativa [2], 10%; with Oryza sativa [3], 0%.
With `C[C@@H](NC(=O)Nc1ccc(Cl)c(Cl)c1)c1ccccc1`, in the series on Cyperus serotinus, the outcome was inactive. Also, the Activity (in series [1]; with Cyperus difformis; with Echinochloa oryzicola; in the series with Oryza sativa [2]; with Oryza sativa [3]) was 0% in each case.
As for `Cc1ccc(NC(=O)N[C@@H](C)c2ccccc2)c(F)c1`, the result in the series with Cyperus serotinus was inactive. For the same compound, the Activity (in series [1]; in the series with Cyperus difformis; with Echinochloa oryzicola; in the series on Oryza sativa [2]; in the series with Oryza sativa [3]) was 0% throughout.
With `C[C@@H](NC(=O)Nc1cccc(I)c1)c1ccccc1`, the outcome in the series on Cyperus serotinus was inactive. The Activity amounted to 0% in series [1]; 10% in the series on Cyperus difformis; 0% with Echinochloa oryzicola; 0% in the series with Oryza sativa [2]; 0% with Oryza sativa [3].
In the case of `C[C@H](NC(=O)Nc1ccc(C(C)(C)C)cc1)c1ccccc1`, the result in the series with Cyperus serotinus was inactive. Besides, the Activity in series [1] was 0%; in the series on Cyperus difformis it was 0%; in the series with Echinochloa oryzicola, 10%; in the series on Oryza sativa [2], 0%; in the series with Oryza sativa [3], 0%.
Take `CC(=O)c1ccc(NC(=O)N[C@H](C)c2ccccc2)cc1`: the result with Cyperus serotinus was inactive. For the same compound, the Activity is 0% in series [1]; 0% with Cyperus difformis; 40% with Echinochloa oryzicola; 0% in the series on Oryza sativa [2]; 0% in the series on Oryza sativa [3].
Take `COc1ccccc1NC(=O)N[C@H](C)c1ccccc1`: the outcome with Cyperus serotinus was inactive. Moreover, the Activity (in series [1]; in the series on Cyperus difformis; in the series with Echinochloa oryzicola; in the series with Oryza sativa [2]; in the series with Oryza sativa [3]) was 0% in each case.
As to `C[C@H](NC(=O)Nc1cc(F)cc(F)c1)c1ccccc1`, the result with Cyperus serotinus was inactive. Also, the Activity in series [1] was 0%; with Cyperus difformis, 0%; in the series with Echinochloa oryzicola, 10%; in the series on Oryza sativa [3] it was 0%.
Consider `C[C@@H](NC(=O)Nc1cccc(Cl)c1Cl)c1ccccc1`, for which the result in the series on Cyperus serotinus was inactive. Also, the Activity (in series [1]; with Cyperus difformis; in the series with Echinochloa oryzicola; with Oryza sativa [2]; with Oryza sativa [3]) was 0% in each case.
`CC(=O)c1cccc(NC(=O)N[C@H](C)c2ccccc2)c1`: the outcome in the series with Cyperus serotinus was inactive. Also, the Activity (in series [1]; in the series with Cyperus difformis; in the series on Echinochloa oryzicola; with Oryza sativa [2]; in the series on Oryza sativa [3]) was 0% in each case.
Consider `CC(=O)c1ccccc1NC(=O)N[C@@H](C)c1ccccc1`, for which the result with Cyperus serotinus was inactive. The Activity (in series [1]; in the series on Cyperus difformis; in the series with Echinochloa oryzicola; in the series on Oryza sativa [2]; in the series on Oryza sativa [3]) was 0% in each case.
On to `C[C@@H](NC(=O)Nc1ccc(C(F)(F)F)cc1)c1ccccc1`, for which, in the series with Cyperus serotinus, the result was inactive. Also, the Activity (in series [1]; in the series with Cyperus difformis; with Echinochloa oryzicola; in the series on Oryza sativa [2]; in the series with Oryza sativa [3]) was 0% in each case.
Consider `C[C@@H](NC(=O)Nc1ccc(Br)cc1)c1ccccc1`, for which the outcome in the series on Cyperus serotinus was inactive. In addition, the Activity (in series [1]; in the series on Cyperus difformis; in the series on Echinochloa oryzicola; in the series with Oryza sativa [2]; with Oryza sativa [3]) was 0% in each case.
For `CCCCc1ccc(NC(=O)N[C@@H](C)c2ccccc2)cc1`, the result in the series on Cyperus serotinus was inactive. For the same compound, the Activity came out at 0% in series [1]; 0% in the series with Cyperus difformis; 10% in the series on Echinochloa oryzicola; 10% with Oryza sativa [2]; 0% in the series on Oryza sativa [3].
Turning to `C[C@@H](NC(=O)Nc1cc(F)cc(F)c1)c1ccccc1`, the result in the series on Cyperus serotinus was inactive. Also, the Activity (in series [1]; in the series on Cyperus difformis; with Echinochloa oryzicola; with Oryza sativa [2]; in the series on Oryza sativa [3]) was 0% each time.
Turning to `C[C@H](NC(=O)Nc1cc(C(C)(C)C)ccc1C(C)(C)C)c1ccccc1`, the result in the series with Cyperus serotinus was inactive. For the same compound, the Activity in the series on Cyperus difformis, in the series with Echinochloa oryzicola, with Oryza sativa [2] and in the series on Oryza sativa [3] was 0% throughout.
As for `CCCCCc1ccc(NC(=O)N[C@H](C)c2ccccc2)cc1`, in the series with Cyperus serotinus, the outcome was inactive. The Activity (in series [1]; with Cyperus difformis; in the series on Echinochloa oryzicola; in the series on Oryza sativa [2]; with Oryza sativa [3]) was 0% throughout.
Consider `C[C@@H](NC(=O)Nc1cccc(C(F)(F)F)c1F)c1ccccc1`, for which the result in the series on Cyperus serotinus was inactive. The Activity in the series on Cyperus difformis, with Echinochloa oryzicola, with Oryza sativa [2] and with Oryza sativa [3] was 0% in each case.
With `C[C@@H](NC(=O)Nc1ccccc1I)c1ccccc1`, the outcome in the series on Cyperus serotinus was inactive. The Activity is 10% in the series with Cyperus difformis, 0% in the series with Echinochloa oryzicola, 0% in the series with Oryza sativa [2] and 0% in the series with Oryza sativa [3].
As for `CCCc1ccc(NC(=O)N[C@@H](C)c2ccccc2)cc1`, the Activity in series [1] is listed as 0%; in the series with Cyperus difformis it was 40%; with Echinochloa oryzicola, 10%; with Oryza sativa [2], 0%; with Oryza sativa [3], 0%.
`C[C@H](NC(=O)Nc1ccc(Br)cc1)c1ccccc1`: the outcome in the series on Cyperus serotinus was inactive. In addition, the Activity in the series with Cyperus difformis, in the series on Echinochloa oryzicola, in the series with Oryza sativa [2] and with Oryza sativa [3] was 0% throughout.

These data come from ChEMBL document CHEMBL3046383, “Enantioselective Herbicidal Activity of Chiral α-Methylbenzylphenylureas against Cyperaceae and Echinochloa Paddy Weeds” (Biosci Biotechnol Biochem, 1998).
